Data on 27 molecules can be found in US20240287080A1 (IDEAYA Biosciences Inc., priority 2021, published 2024).

In one test the target is T1, Pol theta (1-899) (Homo sapiens, UniProt O75417).
T1 construct: Pol theta (1-899) (5 nM) in assay buffer
T1 sequence (O75417 1-899): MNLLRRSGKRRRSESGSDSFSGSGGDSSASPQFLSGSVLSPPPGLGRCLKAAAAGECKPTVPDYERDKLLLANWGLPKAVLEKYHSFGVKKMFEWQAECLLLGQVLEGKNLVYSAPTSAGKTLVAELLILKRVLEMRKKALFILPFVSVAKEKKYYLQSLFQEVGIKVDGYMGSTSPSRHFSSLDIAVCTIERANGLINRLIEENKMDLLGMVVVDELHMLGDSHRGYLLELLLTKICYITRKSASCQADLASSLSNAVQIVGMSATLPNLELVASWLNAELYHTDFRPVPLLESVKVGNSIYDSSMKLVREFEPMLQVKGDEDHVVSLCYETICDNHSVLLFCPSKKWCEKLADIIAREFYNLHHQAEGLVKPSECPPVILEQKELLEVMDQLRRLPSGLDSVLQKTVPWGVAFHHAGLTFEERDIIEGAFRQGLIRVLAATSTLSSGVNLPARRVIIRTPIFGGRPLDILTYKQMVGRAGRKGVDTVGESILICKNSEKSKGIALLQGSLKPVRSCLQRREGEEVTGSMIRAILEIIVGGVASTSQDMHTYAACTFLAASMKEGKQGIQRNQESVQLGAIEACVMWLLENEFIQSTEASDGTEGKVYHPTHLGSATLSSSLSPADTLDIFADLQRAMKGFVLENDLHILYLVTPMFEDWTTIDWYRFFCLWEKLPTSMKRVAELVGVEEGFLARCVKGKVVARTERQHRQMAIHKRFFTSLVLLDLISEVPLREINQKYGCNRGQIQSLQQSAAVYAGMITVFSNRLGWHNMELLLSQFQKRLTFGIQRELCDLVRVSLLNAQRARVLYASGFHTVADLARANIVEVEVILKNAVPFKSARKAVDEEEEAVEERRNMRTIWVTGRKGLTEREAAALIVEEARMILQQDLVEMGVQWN
The test is described as follows: Pol theta ATPase activity, NADH oxidation-coupled enzymatic assay (ATPase NADH coupling: Standard Screening: hPolQ). To be noted: Pol theta (1-899) 5 nM, NADH oxidation-coupled ATPase assay; compounds of Table 3. It is filed as biochemical. The method, then:
The ability of the compounds of Formula (I) or Table 1 to inhibit ATPase activity of Pol theta (1-899) was determined using the assay described below. Pol Theta ATPase activity was determined by measuring the rate of ATP turn over in a NADH oxidation-coupled enzymatic assay. 10-point dilution series of compounds were used in a 384 well format for the inhibition assays. Pol theta (1-899) (5 nM) in assay buffer (20 mM Tris HCl (pH 7.80), 80 mM KCl, 10 mM MgCl2, 1 mM DTT, 0.01% BSA, 0.01% Tween, 5% glycerol) was transferred to the test wells (20 μL), except the low control wells (20 μL of assay buffer was added to the low control wells). The plate was then incubated at room temperature for 15 min. An equal volume (20 μL) of 100 μM ATP, 300 nM […] (single-stranded DNA (ssDNA) containing 50 thymine bases), 300 μM NADH, 6 mM PEP, 10 U/mL lactate dehydrogenase and 20 U/mL pyruvate kinase in assay buffer was added to all the test wells. The plate was then centrifuged at 1000 rpm for 1 min. The reaction was monitored for 60 min by measuring absorbance (λ=340 nm) in a Tecan Spark multimode plate reader every minute. The high control (DMSO with enzyme) with low absorbance intensity represents no inhibition of ATPase reaction while the low control (DMSO with buffer) with high absorbance intensity represents full inhibition of ATPase activity. Slope of the reaction progress curves were used to calculate the rate of ATP hydrolysis. The rates were used to determine the percent inhibition using a four-parameter inhibition model to generate IC50, Hill slope and max inhibition.
The molecule `COc1cnc(Cl)c(F)c1-c1cc(C)ncc1C(=O)Nc1nnc(O[C@H]2CC[C@H](CO)CC2)s1` [Example 316, 2′-chloro-3′-fluoro-N-(5-(((1r,4r)-4-(hydroxymethyl)cyclohexyl)oxy)-1,3,4-thiadiazol-2-yl)-5′-methoxy-6-methyl-[4,4′-bipyridine]-3-carboxamide] returned an IC50 of no more than 200 nM. Same read-out and setting: with `COc1cnc(Cl)cc1-c1cc(C)ncc1C(=O)Nc1nnc(O[C@H]2CC[C@@]23CCOC3)s1` (racemic) [Example 292, rac-N-(5-(((1S,4S)-6-oxaspiro[3.4]octan-1-yl)oxy)-1,3,4-thiadiazol-2-yl)-2′-chloro-5′-methoxy-6-methyl-[4,4′-bipyridine]-3-carboxamide] the figure was no more than 200 nM; with `COc1cnc(C)c(F)c1-c1cc(C)ncc1C(=O)Nc1nnc(O[C@@H]2CO[C@H]3OCC[C@H]32)s1` (single isomer, unassigned) [Example 304], no more than 200 nM.

`COc1cnc(C)c(F)c1-c1cc(C)ncc1C(=O)Nc1nnc(O[C@@H]2C[C@@H]3C[C@H]2C[C@H]3O)s1` (single isomer, unassigned) [Example 254] showed a half-maximal inhibitory concentration (IC50) of no more than 200 nM. The same measure, in the same setting: with `COc1cnc(C)c(F)c1-c1cc(C)ncc1C(=O)Nc1nnc(OC2([C@@H]3CCOC3)CC2)s1` (single isomer, unassigned) [Example 293] the figure was no more than 200 nM; with `COc1nnc(NC(=O)c2cnc(C)cc2-c2ccc(OC)c(F)c2)s1` [Example 419, 4-(3-fluoro-4-methoxyphenyl)-N-(5-methoxy-1,3,4-thiadiazol-2-yl)-6-methylpyridine-3-carboxamide], 1000 to 10000 nM. On the same count and under the same terms, with `COc1nnc(NC(=O)c2cnc(C)cc2-c2cc(Br)c([S@@+](C)[O-])cc2OC)s1` (single isomer, unassigned) [Example 319] the figure was no more than 200 nM; with `COc1nnc(NC(=O)c2cnc(C)cc2-c2cnn(-c3ccccc3)c2C)s1` [Example 456, N-(5-methoxy-1,3,4-thiadiazol-2-yl)-6-methyl-4-(5-methyl-1-phenyl-1H-pyrazol-4-yl)pyridine-3-carboxamide], 1000 to 10000 nM; with `COc1ccc(-c2cc(C)ncc2C(=O)Nc2nnc(OC)s2)cn1` [Example 407, 6-methoxy-N-(5-methoxy-1,3,4-thiadiazol-2-yl)-6′-methyl-[3,4′-bipyridine]-3′-carboxamide], 1000 to 10000 nM. On the same count and under the same terms, the same measure for `COc1nnc(NC(=O)c2cnc(C)cc2-c2cc(Cl)c([S@+]([O-])C3CC3)cc2OC)s1` (single isomer, unassigned) [Example 321]: 1000 to 10000 nM; for `COc1nnc(NC(=O)c2cnc(C)cc2-c2ccc3cn(C)nc3c2)s1` [Example 417, N-(5-methoxy-1,3,4-thiadiazol-2-yl)-6-methyl-4-(2-methyl-2H-indazol-6-yl)nicotinamide]: 1000 to 10000 nM; for `COc1nnc(NC(=O)c2cnc(C)cc2-c2cncc(C(=O)N(C)C)c2)s1` [Example 483, N3′-(5-methoxy-1,3,4-thiadiazol-2-yl)-N5,N5,6′-trimethyl-[3,4′-bipyridine]-3′,5-dicarboxamide]: 1000 to 10000 nM. In turn, `COc1nnc(NC(=O)c2cc(N(C)C)ncc2-c2cc(Cl)ncc2OC)s1` [Example 311, 2′-chloro-6-(dimethylamino)-5′-methoxy-N-(5-methoxy-1,3,4-thiadiazol-2-yl)-[3,4′-bipyridine]-4-carboxamide] had a half-inhibitory concentration (IC50) of 200 to 500 nM. The same measure, in the same setting: the same measure for `COc1cnc(Cl)cc1-c1cc(C)ncc1C(=O)Nc1nnc(OCCN(C)CC(F)(F)F)s1` [Example 317, 2′-chloro-5′-methoxy-6-methyl-N-(5-(2-(methyl(2,2,2-trifluoroethyl)amino)ethoxy)-1,3,4-thiadiazol-2-yl)-[4,4′-bipyridine]-3-carboxamide]: no more than 200 nM.

The test is the same for the next values; noted with them: Table 4; Pol theta (1-899) 5 nM, ATP, dT50 ssDNA.
For `COc1nnc(NC(=O)c2cnc(C)cc2-c2c(OC)cnc(Cl)c2F)s1` [Example 47, 2′-chloro-3′-fluoro-5′-methoxy-N-(5-methoxy-1,3,4-thiadiazol-2-yl)-6-methyl-(4,4′-bipyridine)-3-carboxamide], the IC50 is no more than 200 nM. In the case of `COc1nnc(NC(=O)c2cnc(C)cc2-c2c(Cl)cccc2OC)s1` [Example 35, 4-(2-chloro-6-methoxyphenyl)-N-(5-methoxy-1,3,4-thiadiazol-2-yl)-6-methylnicotinamide], the IC50 is 200 to 500 nM.

Turning to `COc1cnc(Cl)cc1-c1cc(C)ncc1C(=O)Nc1nnc(O[C@H]2CC[C@@H](O)C2)s1` [Example 46, 2′-chloro-N-(5-(((1s,3r)-3-hydroxycyclopentyl)oxy)-1,3,4-thiadiazol-2-yl)-5′-methoxy-6-methyl-(4,4′-bipyridine)-3-carboxamide], the IC50 was no more than 200 nM. Molecule `COc1cnc(Cl)cc1-c1cc(C)ncc1C(=O)Nc1nnc(O[C@H]2C[C@H](O)C2)s1` [Example 16, 2′-chloro-N-(5-((1r,3r)-3-hydroxycyclobutoxy)-1,3,4-thiadiazol-2-yl)-5′-methoxy-6-methyl-(4,4′-bipyridine)-3-carboxamide] showed a concentration for half-maximal inhibition (IC50) of no more than 200 nM.

Staying with this test, now noted: Table 5; Pol theta (1-899) 5 nM, ATP, dT50 ssDNA.
As for `COc1cnc(Cl)cc1-c1cc(C)ncc1C(=O)Nc1nnc(O[C@H]2CCC[C@](C)(O)C2)s1` (single isomer, unassigned) [Example 181], the half-maximal inhibitory concentration (IC50) is no more than 200 nM.

`COc1cnc(Cl)cc1-c1cc(C)ncc1C(=O)Nc1nnc(O[C@@]2(C)CCOC2)s1` (single isomer, unassigned) [Example 138] had an IC50 of no more than 200 nM.

`COc1cnc(Cl)cc1-c1cc(C)ncc1C(=O)Nc1nnc(O[C@H]2CCC[C@H](OC)C2)s1` (single isomer, unassigned) [Example 147] came in with an IC50 of no more than 200 nM. In the case of `COc1cnc(Cl)cc1-c1cc(C)ncc1C(=O)Nc1nnc(O[C@H]2CC[C@H](CO)CC2)s1` [Example 168, 2′-chloro-N-(5-(((1r,4r)-4-(hydroxymethyl)cyclohexyl)oxy)-1,3,4-thiadiazol-2-yl)-5′-methoxy-6-methyl-(4,4′-bipyridine)-3-carboxamide], the IC50 was no more than 200 nM. Same read-out and setting: the same measure for `COc1cnc(Br)cc1-c1cc(C)ncc1C(=O)Nc1nnc(O[C@H]2CC[C@H](O)CC2)s1` [Example 194, 2′-bromo-N-(5-(((1r,4r)-4-hydroxycyclohexyl)oxy)-1,3,4-thiadiazol-2-yl)-5′-methoxy-6-methyl-(4,4′-bipyridine)-3-carboxamide]: no more than 200 nM; for `COc1cnc(Cl)c(F)c1-c1cc(C)ncc1C(=O)Nc1nnc(O[C@H]2CC[C@H](O)C2)s1` (single isomer, unassigned) [Example 197]: no more than 200 nM. The molecule `COc1cnc(Cl)cc1-c1cc(C)ncc1C(=O)Nc1nnc(O[C@H]2CC[C@@](C)(O)CC2)s1` (single isomer, unassigned) [Example 141, 2′-chloro-N-(5-(((1s,4s)-4-hydroxy-4-methylcyclohexyl)oxy)-1,3,4-thiadiazol-2-yl)-5′-methoxy-6-methyl-(4,4′-bipyridine)-3-carboxamide] had an IC50 of no more than 200 nM.

Turning to `Cc1cc(-c2cc(Cl)ncc2OC(F)F)c(C(=O)Nc2nnc(O[C@H]3CC[C@](C)(O)CC3)s2)cn1` (single isomer, unassigned) [Example 223, 2′-chloro-5′-(difluoromethoxy)-N-(5-(((1r,4r)-4-hydroxy-4-methylcyclohexyl)oxy)-1,3,4-thiadiazol-2-yl)-6-methyl-(4,4′-bipyridine)-3-carboxamide], the half-inhibitory concentration (IC50) is no more than 200 nM.

Turning to `COc1cnc(Br)cc1-c1cc(C)ncc1C(=O)Nc1nnc(O[C@H]2COC3(CC3)C2)s1` (single isomer, unassigned) [Example 227], the 50% inhibitory concentration (IC50) is no more than 200 nM.
